The subject of experiment [1] is Rattus norvegicus. Put plainly: Antianxiety effect was assessed by the cook-davidson behavior test at 3 mg/kg of compound administered perorally. The experiment is classed as functional. The note with it: route oral.
Experiment [2] concerns Rattus norvegicus. Kind of experiment: Anticonvulsant efficacy when administered perorally was determined in rat metrazole anticonvulsant test; Calculated from responses at 1,3 and 10 mg/kg doses. It is filed as functional. The note with it: route oral.
Experiment [3] relates to Rattus norvegicus. Put plainly: Antianxiety effect was assessed by the cook-davidson behavior test at 1 mg/kg of compound administered perorally. It is filed as functional. The note with it: route oral.
Experiment [4] has as its target GABA-A receptor; anion channel. Kind of experiment: In vitro inhibition of binding to GABA-A central benzodiazepine-receptor of rat brain.
The species named for experiment [5] is Rattus norvegicus. Put plainly: Antianxiety effect was assessed by the cook-davidson behavior test. The experiment is classed as functional.
Experiment [6] relates to Rattus norvegicus. Kind of experiment: Antianxiety effect was assessed by the cook-davidson behavior test at 10 mg/kg of compound administered perorally. It is filed as functional. To be noted: route oral.
Experiment [7] relates to Rattus norvegicus. Put plainly: (§1) Effect on anti-convulsive 5.4 mg/kg Diazepam peroral dose in rats given 24 mg/kg iv metrazol, number of rats protected (of 6). The experiment is classed as functional.
For experiment [8], the system named is Rattus norvegicus. Put plainly: Antianxiety effect in cook-davidson behavior test at 1 mg/kg of compound administered perorally in rats expressed as mean percent change. The note with it: route oral. The experiment is classed as functional.
For experiment [9], the system named is Rattus norvegicus. Kind of experiment: Antianxiety effect in cook-davidson behavior test at 10 mg/kg of compound administered perorally in rats expressed as mean percent change. The experiment is classed as functional. The note with it: route oral.
For experiment [10], the system named is Rattus norvegicus. Put plainly: Antianxiety effect in cook-davidson behavior test at 3 mg/kg of compound administered perorally in rats expressed as mean percent change. To be noted: route oral. It is filed as functional.
Experiment [11] relates to Rattus norvegicus. Put plainly: Antianxiety effect in cook-davidson behavior test at 30 mg/kg of compound administered perorally in rats expressed as mean percent change. It is filed as functional. The note with it: route oral.
The test system of experiment [12] is Rattus norvegicus. Kind of experiment: Antianxiety effect was assessed by the cook-davidson behavior test at 30 mg/kg of compound administered perorally. It is filed as functional. The note with it: route oral.
For experiment [13], the target named is T1, GABA-A receptor; anion channel (Rattus norvegicus) (UniProt O09028+P15431+P18506+P18508+P19969+P20236+P23574+P23576+P28471+P28473+P30191+P62813+P63079+P63138+Q91ZM7+Q9ES14).
Description: (§2) In vivo inhibition of binding to GABA-A central benzodiazepine-receptor after po administration in rats
For experiment [14], the system named is Rattus norvegicus. Put plainly: Anticonvulsant efficacy when administered perorally was determined in rat metrazole anticonvulsant test. It is filed as functional. To be noted: po.
Experiment [15] concerns the target T1, GABA-A receptor; anion channel (Rattus norvegicus). The source holds these as a separate data set.
Description: In vivo inhibition of binding to GABA-A central benzodiazepine-receptor after ip administration in rats
The test system of experiment [16] is Rattus norvegicus. The experiment is described as §1. The experiment is classed as functional. This is another data set of the same source.
For experiment [17], the target named is T1, GABA-A receptor; anion channel (Rattus norvegicus). This is another data set of the same source.
Description: as §2
Experiment [18] relates to Rattus norvegicus. The experiment is described as §1. It is filed as functional. This is another data set of the same source.
In experiment [19] the test system is Rattus norvegicus. The experiment is described as §1. It is filed as functional. The source holds these as a separate data set.

Several values for one entry are separate records, joined by “and”; a condition that tells them apart may be missing. Equal values may be shown once.

Broadly, the ED50 is the dose that gives a 50% effect, or the effect in half of the subjects. What is called IC50 is the concentration that inhibits the measured activity by half. Low readings indicate higher potency, high ones lower potency. As for `COc1ccc(-n2nc3c4ccccc4[nH]cc-3c2=O)cc1`, the FR10 treated in experiment [1] was found to be 124; in experiment [3], 98; in experiment [6], 100. For the same compound, the median effective dose (ED50) in experiment [2] is 2.81 mg/kg. In experiment [4], this compound returned an IC50 of 0.1 nM. In experiment [5], the FR10 control is 61 and 65 and 50. Further, the “No. of animals protected” value in [7] is listed as 4. For the same compound, the figures for the VI30 in experiment [8], in [9] and in experiment [10] were 6.5%, 5.7% and 7.8%, respectively.

Turning to `CN1C(=O)CN=C(c2ccccc2)c2cc(Cl)ccc21` [DIAZEPAM], the FR10 treated in [1] stood at 131; in experiment [3], 97; in experiment [12], 240; in experiment [6], 206. In addition, the VI30 in experiment [11] is -23.8%; in experiment [8], 5.9%; in experiment [9], 3.6%; in [10], 6.1%. In addition, in experiment [5], the FR10 control was 82 and 85 and 63 and 76. Further, the ID50 in experiment [13] is 5 mg/kg. Moreover, the 50% effect level in experiment [14] (ED50) was put at a dose of 4 mg/kg.

For the compound `O=C1C2C=Nc3ccccc3C2=NN1c1ccc(Cl)cc1` (stereo not given) [CGS-9896], the FR10 treated in experiment [1] is on record as 234; in [3], 217; in [6], 230. In addition, the VI30 in [11] was 7.5%; in [8], 0.1%; in experiment [9] it was 18.2%; in experiment [10], 10.2%. This compound also yielded an IC50 in experiment [4] of 0.6 nM. Moreover, the FR10 control in experiment [5] was 67 and 112 and 81 and 73. In addition, in experiment [14], the ED50 amounted to 0.9 mg/kg. In addition, the ID50 in [15] stood at 3.3 mg/kg.

Compound `O=C1C2C=Nc3ccccc3C2=NN1c1ccccc1` (stereo not given) [CGS-8216] gave an FR10 treated in experiment [3] of 87. In addition, the “No. of animals protected” value was determined as 0 in experiment [16], 1 in experiment [18], 5 in experiment [7] and 0 in experiment [19]. The compound further had an IC50 in [4] of 0.4 nM. Besides, the ID50 in [17] worked out at 7.06 mg/kg. Besides, the VI30 in experiment [8] is listed as 0.1%.

The values above are taken from ChEMBL document CHEMBL1122030, “2-Arylpyrazolo[4,3-c]quinolin-3-ones: novel agonist, partial agonist, and antagonist of benzodiazepines” (J Med Chem, 1982).
